# Measurements as given in patent US8268864B2, “Combination of anticholinergics and leukotriene receptor antagonists for the treatment of respiratory diseases” (Meda Pharma GmbH & Co. KG, priority 2005, dated 2012).
# Tests used:
# [1] = inhaled; asthmatic subjects (Lammers); cited from earlier work
# [2] = system: IL-2 expression; details: ovalbumin-sensitized Brown Norway rats (Lin et al.); cited from earlier work
# [3] = topically into the eyes; allergic conjunctivitis in rats (Papathanassiou et al.); cited from earlier work
# [4] = inhaled; asthmatic subjects (Makker); cited from earlier work
# [5] = system: chemotactic response in the guinea pig conjunctiva; details: guinea pig conjunctiva (Chan); cited from earlier work
# [6] = system: IL-2 release; details: R,R-glycopyrrolate alone, up to 10 μmol/l; TPA 25 nM / ionomycin 1 μg/ml
# Text: (§1) Not only TNFα but also IL-2 plays an important role in inflammatory airway diseases. It is known that in certain forms of asthma (e.g. intrinsic and occupational), particular subsets of T cells produce, among others, IL-2 (Ricci et al.; J Investig Allergol Clin Immunol 1994; 4:214-20). Moreover, allergic patients have special populations of T cells which can be induced to secrete IL-2 (McHugh et al.; Clin Exp Allergy 1993; 23:137-44). […] Therefore, the influence of R,R-glycopyrrolate in combination with cysLT-receptor antagonists on TNFα- and interleukin(IL)-2-release was investigated by using human peripheral blood mononuclear cells (PBMCs). The investigations were approved by the University Ethics Committee according to the International Declarations of Helsinki and Tokyo.
# (§2) PBMCs were isolated from heparinized blood samples of healthy donors by density gradient centrifugation. An equal volume of Hanks buffer (Life Technologies, Heidelberg, Germany) is added to heparinized whole blood samples. 15 ml Histopaque-1077 (Sigma, Deisenhofen, Germany) are overlayed with a maximum of 40 ml of blood/Hanks mixture were centrifuged for 30 min at room temperature (2000 rpm). A visible band containing PBMCs is transferred to a fresh tube and washed twice with Hanks-buffer. […]
# [7] = system: TNFα release; details: R,R-glycopyrrolate alone, up to 10 μmol/l; LPS 100 ng/ml
# Text: as §1, §2
# [8] = system: M1-M3 receptors; details: cited from earlier work
# [9] = target: M3 muscarinic receptors (Homo sapiens, UniProt P20309); details: kinetics studies (Haddad et al.); cited from earlier work
# M3 muscarinic receptors, sequence (P20309 whole entry): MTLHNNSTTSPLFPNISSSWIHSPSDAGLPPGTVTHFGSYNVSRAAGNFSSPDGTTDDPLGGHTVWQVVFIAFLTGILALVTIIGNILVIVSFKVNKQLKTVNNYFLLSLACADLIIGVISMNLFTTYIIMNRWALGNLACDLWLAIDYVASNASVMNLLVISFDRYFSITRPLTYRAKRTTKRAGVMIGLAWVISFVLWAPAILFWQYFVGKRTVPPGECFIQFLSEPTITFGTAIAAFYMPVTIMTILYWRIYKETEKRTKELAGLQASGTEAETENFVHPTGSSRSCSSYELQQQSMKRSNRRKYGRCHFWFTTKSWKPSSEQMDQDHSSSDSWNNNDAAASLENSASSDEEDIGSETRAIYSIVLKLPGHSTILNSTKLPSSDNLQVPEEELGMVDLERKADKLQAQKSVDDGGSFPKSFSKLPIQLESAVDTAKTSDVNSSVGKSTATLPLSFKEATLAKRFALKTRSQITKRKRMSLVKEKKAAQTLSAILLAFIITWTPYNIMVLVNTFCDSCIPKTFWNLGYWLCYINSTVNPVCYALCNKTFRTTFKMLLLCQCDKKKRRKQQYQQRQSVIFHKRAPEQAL
# [10] = inhaled; asthmatic subjects (Christie); cited from earlier work
smiles,measurement,setting,value
"CN(C)C(=O)CCS[C@H](SCCC(=O)O)c1cccc(/C=C/c2ccc3ccc(Cl)cc3n2)c1 [verlukast (MK-0679), verlukast]",mean FEV1,[1],significant improvement
COc1cc(C(=O)NS(=O)(=O)c2ccccc2C)ccc1Cc1cn(C)c2ccc(NC(=O)OC3CCCC3)cc12 [zafirlukast],IL-2 expression,[2],able to decrease
same,development of symptoms and mediator release,[3],effectively inhibit
"COc1cc(C(=O)NS(=O)(=O)c2ccccc2C)ccc1Cc1cn(C)c2ccc(NC(=O)OC3CCCC3)cc12 [ICI 204,219]",protection against exercise-induced bronchoconstriction,[4],protected significantly
CN(C)C(=O)CCSC(SCCC(=O)O)c1cccc(/C=C/c2ccc3ccc(Cl)cc3n2)c1 (stereo not shown) [MK-571],in vivo chemotactic response,[5],completely inhibited
"C[N+]1(C)CC[C@@H](OC(=O)[C@](O)(c2ccccc2)C2CCCC2)C1.[Br-] [R,R-glycopyrrolate]",influence on stimulated IL-2 release,[6],had no influence
same,influence on LPS-induced TNFα release,[7],did not influence
C[N+]1(C)CCC(OC(=O)C(O)(c2ccccc2)C2CCCC2)C1 (stereo not shown) [Glycopyrrolate],selectivity in binding to the M1-M3 receptors,[8],no selectivity
same,dissociation from M3 muscarinic receptors,[9],dissociates slowly
"O=C(O)CCS[C@H](c1ccccc1CCCCCCCCc1ccccc1)[C@@H](O)C(=O)O [pobilukast (SK&F 104353), pobilukast]",LT induced bronchoconstriction,[10],inhibited significantly
